We go through 37 compounds from patent publication US20100068204A1, “4-ARYLOXYQUINOLIN-2(1H)-ONES AS MTOR KINASE AND PI3 KINASE INHIBITORS, FOR USE AS ANTI-CANCER AGENTS” (Wyeth, priority 2008, published 2010).

One assay concerns the target PI3Kα (Homo sapiens, UniProt P42336). Nature of the assay: PI3Kα fluorescence polarization assay. Type of assay: biochemical. As to conditions: 20 μM PIP2, 25 μM ATP. Here is the method:
The reaction buffer was 20 mM HEPES pH7.5, 2 mM MgCl2, 0.05% CHAPS, and 0.01% βME (added fresh). The substrate solution was 40 μM PIP2 (diC8, Echelon, Salt Lake City Utah cat #P-4508, 1 mM in water) and 50 μM ATP in the reaction buffer. Nunc 384-well black polypropylene fluorescent plates were used for PI3K assays. The assay is run by putting 9.5 μl of freshly diluted enzyme in the reaction buffer per well, adding 0.5 μl of diluted drug or DMSO, and mixing. Then 10 μl of the substrate solution is added to each well to start the reaction. A final concentration of 20 μM PIP2 and 25 μM ATP in the reaction was used. Reactions were allowed to proceed for 30-60 minutes at room temperature. After 30-60 minutes, 20 μl of a solution of 10 nM TAMRA detector (Red detector probe-Echelon) and 2.5 uM of GST-murine GRP (1.5 mg/ml in 17% glycerol) was added per well to stop the reaction. The resulting solution was mixed well and allowed to stand for 90-110 minutes before reading plate. Assay Plates were read on Perkin-Elmer Envision plate readers with appropriate filters for Tamra [BODIPY-TMRI(1,3,4,5)P4]. Data obtained were used to calculate enzymatic activity and enzyme inhibition by inhibitor compounds. It is important to keep Red probe solutions dark. This procedure is adapted from Echelon Biosciences Inc procedure for their PI3-Kinase fluorescence polarization activity Assay kit Product number K-1100.

The subject of assay [1] is MDA468 breast tumor cells. Nature of the assay: In vitro cell growth assay (MTS), MDA468. Type of assay: cell-based, human. As to conditions: Homo sapiens, 72 h, three days after drug treatment. Here is the method:
(§1) Cell lines used were human adenocarcinoma (LoVo), […], prostate (LNCap), breast (MDA468, MCF7), colon (HCT116), renal (HTB44 A498), and ovarian (OVCAR3) tumor cell lines. The tumor cells were plated in 96-well culture plates at approximately 3000 cells per well. One day following plating, various concentrations of inhibitors in DMSO were added to cells (final DMSO concentration in cell assays was 0.25%). Three days after drug treatment, viable cell densities were determined by cell mediated metabolic conversion of the dye MTS, a well-established indicator of cell proliferation in vitro. Cell growth assays were performed using kits purchased from Promega Corporation (Madison, Wis.), following the protocol provided by the vendor. Measuring absorbance at 490 nm generated MTS assay results. Compound effect on cell proliferation was assessed relative to untreated control cell growth.

For assay [2], the system named is LNCap prostate tumor cells. Nature of the assay: In vitro cell growth assay (MTS), LNCap. Type of assay: cell-based, human. The note with it: Homo sapiens, LNCaP, 72 h, three days after drug treatment. How it is done:
as §1

The next assay has as its target human TOR (FLAG-TOR) (Homo sapiens, UniProt P42345). Briefly: mTOR enzyme assay (DELFIA format, purified enzyme). The note with it: 800 ng/ml FLAG-TOR, 100 μM ATP, 1.25 μM His6-S6K; read-out: mTOR Kinase IC50. Type of assay: biochemical.

Sequence of PI3Kα (P42336 whole entry, species assumed): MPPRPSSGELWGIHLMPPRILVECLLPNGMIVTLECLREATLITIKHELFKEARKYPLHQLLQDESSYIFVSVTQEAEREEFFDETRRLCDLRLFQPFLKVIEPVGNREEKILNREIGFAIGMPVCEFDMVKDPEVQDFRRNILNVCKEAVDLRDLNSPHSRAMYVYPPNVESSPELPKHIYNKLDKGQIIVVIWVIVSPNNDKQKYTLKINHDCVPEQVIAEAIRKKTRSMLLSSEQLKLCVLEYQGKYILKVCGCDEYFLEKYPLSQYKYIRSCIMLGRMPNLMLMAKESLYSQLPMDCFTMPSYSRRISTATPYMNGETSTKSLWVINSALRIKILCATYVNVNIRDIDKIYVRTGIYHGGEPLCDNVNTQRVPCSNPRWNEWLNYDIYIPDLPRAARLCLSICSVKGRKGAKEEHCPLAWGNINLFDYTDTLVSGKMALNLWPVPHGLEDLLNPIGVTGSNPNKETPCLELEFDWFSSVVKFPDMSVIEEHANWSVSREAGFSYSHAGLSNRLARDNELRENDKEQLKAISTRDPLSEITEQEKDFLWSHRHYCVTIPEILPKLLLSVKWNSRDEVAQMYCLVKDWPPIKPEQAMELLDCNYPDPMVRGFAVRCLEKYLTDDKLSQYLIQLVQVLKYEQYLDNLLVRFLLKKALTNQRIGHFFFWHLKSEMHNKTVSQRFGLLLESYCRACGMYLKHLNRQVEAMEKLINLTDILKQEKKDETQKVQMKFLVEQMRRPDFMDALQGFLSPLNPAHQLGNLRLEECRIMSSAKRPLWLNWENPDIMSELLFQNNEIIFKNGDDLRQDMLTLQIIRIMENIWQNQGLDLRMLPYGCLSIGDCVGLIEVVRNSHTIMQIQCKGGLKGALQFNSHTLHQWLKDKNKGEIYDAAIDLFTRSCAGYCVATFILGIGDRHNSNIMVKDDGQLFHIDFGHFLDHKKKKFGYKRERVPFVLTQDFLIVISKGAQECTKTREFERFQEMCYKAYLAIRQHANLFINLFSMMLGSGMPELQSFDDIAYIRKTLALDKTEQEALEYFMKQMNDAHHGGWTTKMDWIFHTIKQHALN
Sequence of PI3Kα (P27986 whole entry partner, species assumed): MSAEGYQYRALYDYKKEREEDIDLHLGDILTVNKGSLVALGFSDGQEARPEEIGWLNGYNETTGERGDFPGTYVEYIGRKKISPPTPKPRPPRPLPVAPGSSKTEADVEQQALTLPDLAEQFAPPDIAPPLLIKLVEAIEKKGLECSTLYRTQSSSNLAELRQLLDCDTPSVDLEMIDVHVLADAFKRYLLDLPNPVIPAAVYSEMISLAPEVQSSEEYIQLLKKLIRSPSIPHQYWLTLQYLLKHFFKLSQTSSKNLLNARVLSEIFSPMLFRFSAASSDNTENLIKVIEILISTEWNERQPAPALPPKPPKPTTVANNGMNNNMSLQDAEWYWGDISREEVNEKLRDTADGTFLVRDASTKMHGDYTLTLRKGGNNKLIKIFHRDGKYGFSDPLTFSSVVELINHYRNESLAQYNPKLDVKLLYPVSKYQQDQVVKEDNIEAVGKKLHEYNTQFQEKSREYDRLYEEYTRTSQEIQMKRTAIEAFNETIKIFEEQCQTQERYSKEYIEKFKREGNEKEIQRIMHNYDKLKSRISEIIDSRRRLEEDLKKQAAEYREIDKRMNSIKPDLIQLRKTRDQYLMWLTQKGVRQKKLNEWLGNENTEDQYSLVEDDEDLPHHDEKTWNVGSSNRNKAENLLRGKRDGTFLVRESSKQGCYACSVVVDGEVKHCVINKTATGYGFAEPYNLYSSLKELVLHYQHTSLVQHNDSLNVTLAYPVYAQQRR

Turning to `O=c1cc(Oc2ccccc2)c2cc(-c3ccoc3)ccc2[nH]1`, the IC50 was 6.96 µM on PI3Kα, 4.5 µM in assay [1], over 60 µM in assay [2] and 7.3 µM on human TOR (FLAG-TOR).

In the case of `O=c1cc(Oc2ccccc2)c2ccc(-c3cn[nH]c3)cc2[nH]1`, the IC50 at PI3Kα was 2.76 µM; in assay [1] it was over 60 µM; in assay [2], over 60 µM; at human TOR (FLAG-TOR), over 20 µM.

Regarding `O=c1cc(Oc2ccc(-c3cccc(O)c3)cc2)c2ccccc2[nH]1`, the IC50 is 1.66 µM on PI3Kα, over 60 µM in assay [1], over 60 µM in assay [2] and 0.71 µM at human TOR (FLAG-TOR).

With `O=C(Cc1cccs1)Nc1ccc2[nH]c(=O)cc(Oc3ccccc3)c2c1`, the IC50 at PI3Kα was determined as 0.383 µM; in assay [1], 35 µM; in assay [2], 22 µM; on human TOR (FLAG-TOR), 14.5 µM.

For the compound `COC(=O)c1cc(Oc2cc(=O)[nH]c3ccccc23)ccc1OC`, the IC50 on PI3Kα was over 10 µM; in assay [1] it was over 60 µM; in assay [2], 7.9 µM; at human TOR (FLAG-TOR), 1.28 µM.

In the case of `CC(=O)N1CCC(C(=O)Nc2ccc3[nH]c(=O)cc(Oc4ccccc4)c3c2)CC1`, the IC50 against PI3Kα was over 10 µM; in assay [1], over 60 µM; in assay [2] it was over 60 µM; at human TOR (FLAG-TOR), over 20 µM.

Turning to `CN(C)CCNC(=O)Nc1ccc(-c2cccc(Oc3cc(=O)[nH]c4ccccc34)c2)cc1`, the IC50 is over 10 µM against PI3Kα, 9 µM in assay [1], 7 µM in assay [2] and 0.1 µM at human TOR (FLAG-TOR).

Turning to `CN(C)C/C=C/C(=O)Nc1cccc(-c2cccc(Oc3cc(=O)[nH]c4ccccc34)c2)c1`, the IC50 against PI3Kα is 12 µM; in assay [1], 8 µM; in assay [2] it was 4 µM; on human TOR (FLAG-TOR), 0.14 µM.

On to `Cc1ccc(Oc2cc(=O)[nH]c3ccccc23)cc1C`, for which the IC50 at PI3Kα is over 10 µM; in assay [1], over 60 µM; in assay [2] it was over 60 µM; on human TOR (FLAG-TOR) it was 0.69 µM.

As for `COc1ncccc1CNc1cccc(Oc2cc(=O)[nH]c3ccccc23)c1`, the IC50 against PI3Kα is 6.74 µM; in assay [1], 60 µM; in assay [2], 8.5 µM; on human TOR (FLAG-TOR), 0.4 µM.

On to `CN(C)CCc1ccc(Oc2cc(=O)[nH]c3ccccc23)cc1`, for which the IC50 against PI3Kα was over 10 µM; in assay [1] it was 23 µM; in assay [2] it was 8 µM; at human TOR (FLAG-TOR), 3.23 µM.

Turning to `Cn1cc(-c2cccc(Oc3cc(=O)[nH]c4ccccc34)c2)cn1`, the IC50 against PI3Kα is over 10 µM; in assay [1] it was 60 µM; in assay [2], over 60 µM; at human TOR (FLAG-TOR), 0.18 µM.

In the case of `CC(C)(C)OC(=O)NC1(CNc2cccc(Oc3cc(=O)[nH]c4ccccc34)c2)CCCC1`, the IC50 was 5.13 µM against PI3Kα, 8.5 µM in assay [1], 4.1 µM in assay [2] and 0.23 µM on human TOR (FLAG-TOR).

With `CCN1CCCC(Nc2ccc(-c3cccc(Oc4cc(=O)[nH]c5ccccc45)c3)cc2)C1` (stereo not shown), the IC50 is 8 µM against PI3Kα, 10 µM in assay [1], 3.9 µM in assay [2] and 0.31 µM on human TOR (FLAG-TOR).

For the compound `CN(C)CCNc1ccc(-c2cccc(Oc3cc(=O)[nH]c4ccccc34)c2)cc1`, the IC50 at PI3Kα stood at 5 µM; in assay [1], 8 µM; in assay [2] it was 4.8 µM; at human TOR (FLAG-TOR), 0.18 µM.

As for `CN(C)c1ncccc1CNc1cccc(Oc2cc(=O)[nH]c3ccccc23)c1`, the IC50 against PI3Kα is over 10 µM; in assay [1] it was 12 µM; in assay [2], 5 µM; on human TOR (FLAG-TOR) it was 0.31 µM.

Consider `O=c1cc(Oc2cccc(-c3ccc(NCCN4CCCC4)cc3)c2)c2ccccc2[nH]1`, for which the IC50 on PI3Kα was over 10 µM; in assay [1] it was 4.5 µM; in assay [2], 3.05 µM; at human TOR (FLAG-TOR), 0.18 µM.

With `O=c1cc(Oc2cccc(Br)c2)c2ccccc2[nH]1`, the 50% inhibitory concentration (IC50) on PI3Kα is over 10 µM; in assay [1] it was over 60 µM; in assay [2] it was 60 µM; on human TOR (FLAG-TOR) it was 0.11 µM.

In the case of `NCc1ccc(Oc2cc(=O)[nH]c3ccccc23)cc1`, the IC50 was over 10 µM against PI3Kα, 35 µM in assay [1], 12 µM in assay [2] and 3.95 µM on human TOR (FLAG-TOR).

Turning to `O=c1cc(Oc2cccc(NCc3ccco3)c2)c2ccccc2[nH]1`, the IC50 at PI3Kα came out at 4.65 µM; in assay [1], 13 µM; in assay [2], 3.4 µM; on human TOR (FLAG-TOR), 0.13 µM.

As to `O=c1cc(Oc2cccc(NCc3ccc(Cl)nc3)c2)c2ccccc2[nH]1`, the IC50 at PI3Kα is 13 µM; in assay [1] it was 8 µM; in assay [2], 3.5 µM; at human TOR (FLAG-TOR), 0.06 µM.

As to `O=c1cc(Oc2cccnc2)c2ccccc2[nH]1` [drawing 388], the IC50 against PI3Kα was over 10 µM; in assay [1], over 60 µM; in assay [2], over 60 µM; on human TOR (FLAG-TOR) it was 1.16 µM.

For the compound `O=c1cc(Oc2cccc(-c3ccc(N4CCOCC4)nc3)c2)c2ccccc2[nH]1`, the IC50 against PI3Kα is over 10 µM; in assay [1], over 60 µM; in assay [2], 12 µM; on human TOR (FLAG-TOR), 0.2 µM.

As to `O=c1cc(Oc2cccc(NCc3cnc4ccccc4c3)c2)c2ccccc2[nH]1`, the IC50 against PI3Kα was over 10 µM; in assay [1], 60 µM; in assay [2], over 60 µM; on human TOR (FLAG-TOR) it was 0.06 µM.

`O=c1cc(Oc2cccc([N+](=O)[O-])c2)c2ccccc2[nH]1`: the 50% inhibitory concentration (IC50) against PI3Kα was over 10 µM; in assay [1], over 60 µM; in assay [2], over 60 µM; on human TOR (FLAG-TOR) it was 2.25 µM.

In the case of `COc1ncc(-c2cccc(Oc3cc(=O)[nH]c4ccccc34)c2)c(OC)n1`, the half-inhibitory concentration (IC50) was over 10 µM against PI3Kα, 38 µM in assay [1], over 60 µM in assay [2] and 0.28 µM on human TOR (FLAG-TOR).

Take `O=c1cc(Oc2cccc(-c3ccc4[nH]ccc4c3)c2)c2ccccc2[nH]1`: the IC50 is over 10 µM on PI3Kα, 23 µM in assay [1], 12 µM in assay [2] and 0.47 µM at human TOR (FLAG-TOR).

With `O=c1cc(Oc2cccc(OCCO)c2)c2ccccc2[nH]1`, the IC50 on PI3Kα is 12 µM; in assay [1], over 60 µM; in assay [2] it was 6 µM; at human TOR (FLAG-TOR), 0.34 µM.

On to `O=c1cc(Oc2ccccc2)c2cc(-c3cc[nH]n3)ccc2[nH]1`, for which the IC50 against PI3Kα was 1.02 µM; in assay [1], 40 µM; in assay [2], over 60 µM; on human TOR (FLAG-TOR), 11.5 µM.

As to `Cn1cc(-c2ccc3[nH]c(=O)cc(Oc4ccccc4)c3c2)cn1`, the IC50 at PI3Kα is over 10 µM; in assay [1], over 60 µM; in assay [2], over 60 µM; on human TOR (FLAG-TOR), over 20 µM.

As for `O=c1cc(Oc2cccc(-c3cccs3)c2)c2ccccc2[nH]1`, the IC50 is 2.69 µM at PI3Kα, 3.8 µM in assay [1], over 60 µM in assay [2] and over 20 µM at human TOR (FLAG-TOR).

With `O=C(NCCO)Nc1ccc(-c2cccc(Oc3cc(=O)[nH]c4ccccc34)c2)cc1`, the IC50 against PI3Kα is 8.48 µM; in assay [1], over 60 µM; in assay [2], 60 µM; on human TOR (FLAG-TOR), 0.25 µM.

Regarding `O=c1cc(Oc2cccc(F)c2)c2ccccc2[nH]1`, the IC50 against PI3Kα was over 10 µM; in assay [1] it was over 60 µM; in assay [2] it was over 60 µM; at human TOR (FLAG-TOR), 1.12 µM.

In the case of `O=c1cc(Oc2cccc(NCc3cnc4[nH]ccc4c3)c2)c2ccccc2[nH]1`, the IC50 against PI3Kα was found to be 3.42 µM; in assay [1], 13 µM; in assay [2] it was 4.9 µM; at human TOR (FLAG-TOR), 0.12 µM.

As to `CC(C)(C)OCNC(=O)c1cccc(-c2cccc(Oc3cc(=O)[nH]c4ccccc34)c2)c1`, the IC50 on PI3Kα was over 10 µM; in assay [1] it was over 60 µM; in assay [2], 6.6 µM; at human TOR (FLAG-TOR), 2.38 µM.

Take `CCOc1ccc(Oc2cc(=O)[nH]c3ccccc23)cc1`: the half-maximal inhibitory concentration (IC50) was over 10 µM against PI3Kα, over 60 µM in assay [1], over 60 µM in assay [2] and over 20 µM at human TOR (FLAG-TOR).

Consider `O=c1cc(Oc2cccc(NCc3cccnc3)c2)c2ccccc2[nH]1`, for which the IC50 was over 10 µM at PI3Kα, 9.77 µM in assay [1], 3.2 µM in assay [2] and 0.08 µM on human TOR (FLAG-TOR).
